According to PMC10507085, “Pharmacological inhibition of TBK1/IKKε blunts immunopathology in a murine model of SARS-CoV-2 infection” (Nature Communications, 2023):

Assays:
Experiment in all cases: biochemical
Set-up in all cases: KINOMEscan competition binding, DNA-tagged kinase against immobilised ligand, qPCR read-out
Conditions in all cases: read-out: Percent Control
STK16 = STK16 (Homo sapiens, UniProt O75716)
TYRO3 = TYRO3 (Homo sapiens, UniProt Q06418)
CDK16 = CDK16 (Homo sapiens, UniProt Q00536)
[1] = molecular target: T1, TYK2(JH2domain-pseudokinase) (Homo sapiens, UniProt P29597)
T1 construct: JH2 domain pseudokinase

PRKCD = PRKCD (Homo sapiens, UniProt Q05655)
PIK3CB = PIK3CB (Homo sapiens, UniProt P42338)
MAST1 = MAST1 (Homo sapiens, UniProt Q9Y2H9)
PTK2 = PTK2 (Homo sapiens, UniProt Q05397)
CDK9 = CDK9 (Homo sapiens, UniProt P50750)
CSK = CSK (Homo sapiens, UniProt P41240)
FLT3 = FLT3 (Homo sapiens, UniProt P36888)
ULK3 = ULK3 (Homo sapiens, UniProt Q6PHR2)
ERBB4 = ERBB4 (Homo sapiens, UniProt Q15303)
TLK1 = TLK1 (Homo sapiens, UniProt Q9UKI8)
FYN = FYN (Homo sapiens, UniProt P06241)
PHKG1 = PHKG1 (Homo sapiens, UniProt Q16816)
PDGFRA = PDGFRA (Homo sapiens, UniProt P16234)
STK4 = STK4 (Homo sapiens, UniProt Q13043)
SYK = SYK (Homo sapiens, UniProt P43405)
NTRK1 = NTRK1 (Homo sapiens, UniProt P04629)

ULK3, sequence (Q6PHR2 whole entry): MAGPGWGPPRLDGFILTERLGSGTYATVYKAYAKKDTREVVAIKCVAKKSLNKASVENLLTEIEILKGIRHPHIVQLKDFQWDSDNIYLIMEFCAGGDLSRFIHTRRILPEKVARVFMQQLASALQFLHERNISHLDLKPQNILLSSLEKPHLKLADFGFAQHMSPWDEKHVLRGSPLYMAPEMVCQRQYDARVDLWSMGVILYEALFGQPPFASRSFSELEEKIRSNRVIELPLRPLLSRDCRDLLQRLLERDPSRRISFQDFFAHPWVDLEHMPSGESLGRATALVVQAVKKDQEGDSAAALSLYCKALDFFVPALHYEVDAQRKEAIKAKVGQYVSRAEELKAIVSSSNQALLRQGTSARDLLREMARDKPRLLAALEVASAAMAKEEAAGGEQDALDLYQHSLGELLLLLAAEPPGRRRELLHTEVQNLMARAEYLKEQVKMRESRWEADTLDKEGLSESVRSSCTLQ
PDGFRA, sequence (P16234 whole entry): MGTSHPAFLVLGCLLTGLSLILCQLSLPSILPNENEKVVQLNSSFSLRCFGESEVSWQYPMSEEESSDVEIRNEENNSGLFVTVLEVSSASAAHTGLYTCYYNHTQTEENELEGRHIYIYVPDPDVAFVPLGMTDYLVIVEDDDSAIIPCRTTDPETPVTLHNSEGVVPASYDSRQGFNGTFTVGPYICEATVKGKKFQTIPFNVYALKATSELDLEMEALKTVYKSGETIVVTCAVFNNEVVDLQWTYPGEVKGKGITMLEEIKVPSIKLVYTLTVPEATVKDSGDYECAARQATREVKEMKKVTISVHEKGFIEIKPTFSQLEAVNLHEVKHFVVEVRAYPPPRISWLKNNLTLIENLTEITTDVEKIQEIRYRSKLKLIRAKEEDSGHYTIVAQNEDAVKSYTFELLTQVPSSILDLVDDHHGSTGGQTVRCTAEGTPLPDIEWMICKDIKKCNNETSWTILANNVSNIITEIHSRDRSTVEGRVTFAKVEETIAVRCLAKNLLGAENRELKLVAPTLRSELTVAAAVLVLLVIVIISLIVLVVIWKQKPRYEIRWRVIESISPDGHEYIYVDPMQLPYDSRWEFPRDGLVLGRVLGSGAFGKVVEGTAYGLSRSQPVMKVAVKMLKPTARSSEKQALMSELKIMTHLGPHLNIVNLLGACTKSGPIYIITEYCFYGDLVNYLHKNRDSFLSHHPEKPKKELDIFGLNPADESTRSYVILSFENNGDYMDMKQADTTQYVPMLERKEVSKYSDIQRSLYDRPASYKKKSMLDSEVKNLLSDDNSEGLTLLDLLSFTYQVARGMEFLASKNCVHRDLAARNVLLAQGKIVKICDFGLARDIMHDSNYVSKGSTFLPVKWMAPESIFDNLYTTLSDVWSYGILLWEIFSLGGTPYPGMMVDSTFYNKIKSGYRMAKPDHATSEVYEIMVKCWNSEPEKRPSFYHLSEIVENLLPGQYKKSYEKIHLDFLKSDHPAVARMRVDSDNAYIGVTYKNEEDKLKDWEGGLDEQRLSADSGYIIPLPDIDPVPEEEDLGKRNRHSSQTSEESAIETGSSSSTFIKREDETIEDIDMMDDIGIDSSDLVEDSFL
CSK, sequence (P41240 whole entry): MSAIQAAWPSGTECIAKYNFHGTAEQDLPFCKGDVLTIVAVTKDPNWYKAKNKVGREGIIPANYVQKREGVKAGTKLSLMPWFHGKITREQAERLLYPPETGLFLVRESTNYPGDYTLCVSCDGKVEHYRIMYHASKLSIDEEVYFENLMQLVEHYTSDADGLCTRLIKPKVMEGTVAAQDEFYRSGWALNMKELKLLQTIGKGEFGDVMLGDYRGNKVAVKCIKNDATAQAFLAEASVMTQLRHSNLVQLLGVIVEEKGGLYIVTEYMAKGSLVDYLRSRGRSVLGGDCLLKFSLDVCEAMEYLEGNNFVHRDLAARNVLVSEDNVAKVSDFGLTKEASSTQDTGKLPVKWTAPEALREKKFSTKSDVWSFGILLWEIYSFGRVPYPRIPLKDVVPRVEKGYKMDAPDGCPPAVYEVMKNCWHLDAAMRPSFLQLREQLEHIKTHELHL
MAST1, sequence (Q9Y2H9 whole entry): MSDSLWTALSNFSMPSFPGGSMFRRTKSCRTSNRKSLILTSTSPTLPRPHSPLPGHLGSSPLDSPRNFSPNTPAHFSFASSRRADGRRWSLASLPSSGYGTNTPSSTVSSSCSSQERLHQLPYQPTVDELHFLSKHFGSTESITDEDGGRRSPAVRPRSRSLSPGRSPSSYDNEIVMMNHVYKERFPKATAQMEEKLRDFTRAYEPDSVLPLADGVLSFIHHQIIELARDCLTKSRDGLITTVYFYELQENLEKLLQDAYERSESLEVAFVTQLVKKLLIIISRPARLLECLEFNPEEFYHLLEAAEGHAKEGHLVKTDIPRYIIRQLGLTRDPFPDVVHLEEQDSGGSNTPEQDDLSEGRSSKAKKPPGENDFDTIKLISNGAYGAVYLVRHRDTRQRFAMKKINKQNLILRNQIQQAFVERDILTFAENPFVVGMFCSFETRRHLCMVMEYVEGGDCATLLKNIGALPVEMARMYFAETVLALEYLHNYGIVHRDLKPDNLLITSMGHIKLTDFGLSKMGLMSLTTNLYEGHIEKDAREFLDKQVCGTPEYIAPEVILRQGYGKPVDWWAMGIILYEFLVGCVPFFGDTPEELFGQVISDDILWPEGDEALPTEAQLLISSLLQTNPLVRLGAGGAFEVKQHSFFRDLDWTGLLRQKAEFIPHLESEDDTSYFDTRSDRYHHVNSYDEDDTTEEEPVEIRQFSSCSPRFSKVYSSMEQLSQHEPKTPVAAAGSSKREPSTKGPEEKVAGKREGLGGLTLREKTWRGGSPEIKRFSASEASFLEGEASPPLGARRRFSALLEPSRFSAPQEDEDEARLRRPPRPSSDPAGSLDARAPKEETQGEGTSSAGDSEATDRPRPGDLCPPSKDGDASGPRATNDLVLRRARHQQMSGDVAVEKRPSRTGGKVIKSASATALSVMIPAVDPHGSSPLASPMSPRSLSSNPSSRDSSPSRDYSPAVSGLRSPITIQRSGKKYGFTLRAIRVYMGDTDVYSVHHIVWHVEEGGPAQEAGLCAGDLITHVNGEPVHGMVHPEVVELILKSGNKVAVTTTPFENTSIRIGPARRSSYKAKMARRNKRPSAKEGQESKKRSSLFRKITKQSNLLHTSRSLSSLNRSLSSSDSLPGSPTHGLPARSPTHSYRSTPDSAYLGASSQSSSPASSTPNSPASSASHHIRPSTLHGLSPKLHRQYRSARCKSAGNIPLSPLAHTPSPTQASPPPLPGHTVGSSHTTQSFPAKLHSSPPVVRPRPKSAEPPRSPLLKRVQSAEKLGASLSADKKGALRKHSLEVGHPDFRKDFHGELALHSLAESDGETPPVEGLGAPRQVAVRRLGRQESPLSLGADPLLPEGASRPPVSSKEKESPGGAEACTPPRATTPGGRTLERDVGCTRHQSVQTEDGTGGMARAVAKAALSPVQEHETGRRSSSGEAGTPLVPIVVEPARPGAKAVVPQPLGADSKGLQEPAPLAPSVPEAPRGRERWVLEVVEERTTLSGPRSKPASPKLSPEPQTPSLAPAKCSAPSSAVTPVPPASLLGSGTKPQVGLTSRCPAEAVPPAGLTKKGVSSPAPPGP
T1 sequence (P29597 whole entry, the tested form may be a part): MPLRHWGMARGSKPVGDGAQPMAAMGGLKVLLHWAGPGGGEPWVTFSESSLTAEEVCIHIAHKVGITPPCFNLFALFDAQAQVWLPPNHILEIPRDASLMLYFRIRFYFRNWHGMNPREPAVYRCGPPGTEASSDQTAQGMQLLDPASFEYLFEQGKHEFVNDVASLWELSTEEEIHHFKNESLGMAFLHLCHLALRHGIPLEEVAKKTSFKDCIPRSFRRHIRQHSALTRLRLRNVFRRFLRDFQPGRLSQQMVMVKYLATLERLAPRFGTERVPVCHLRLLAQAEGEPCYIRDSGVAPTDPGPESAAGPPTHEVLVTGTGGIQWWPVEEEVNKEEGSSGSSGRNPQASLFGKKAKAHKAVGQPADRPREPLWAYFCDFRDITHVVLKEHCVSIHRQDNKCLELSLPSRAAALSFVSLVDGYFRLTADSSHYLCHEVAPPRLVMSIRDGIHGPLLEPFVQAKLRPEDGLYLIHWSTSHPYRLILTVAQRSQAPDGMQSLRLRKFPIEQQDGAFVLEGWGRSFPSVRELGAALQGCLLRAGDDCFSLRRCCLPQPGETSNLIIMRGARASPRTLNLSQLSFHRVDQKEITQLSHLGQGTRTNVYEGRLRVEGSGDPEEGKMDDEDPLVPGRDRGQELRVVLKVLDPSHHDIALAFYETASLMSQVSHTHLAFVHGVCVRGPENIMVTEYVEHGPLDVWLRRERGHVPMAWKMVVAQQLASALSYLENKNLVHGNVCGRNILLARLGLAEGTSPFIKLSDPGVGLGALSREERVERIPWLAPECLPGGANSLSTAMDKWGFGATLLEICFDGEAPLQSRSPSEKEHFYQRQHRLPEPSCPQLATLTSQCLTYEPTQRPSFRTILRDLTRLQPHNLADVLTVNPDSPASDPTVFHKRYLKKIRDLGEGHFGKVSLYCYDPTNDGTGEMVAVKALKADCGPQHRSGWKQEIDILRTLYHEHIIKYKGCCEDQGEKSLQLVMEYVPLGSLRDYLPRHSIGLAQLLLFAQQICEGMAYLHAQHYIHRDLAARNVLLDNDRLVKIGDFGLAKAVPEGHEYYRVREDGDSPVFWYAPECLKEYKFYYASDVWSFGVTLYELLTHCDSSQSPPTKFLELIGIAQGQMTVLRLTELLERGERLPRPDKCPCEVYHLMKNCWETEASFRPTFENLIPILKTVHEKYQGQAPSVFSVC
STK16, sequence (O75716 whole entry): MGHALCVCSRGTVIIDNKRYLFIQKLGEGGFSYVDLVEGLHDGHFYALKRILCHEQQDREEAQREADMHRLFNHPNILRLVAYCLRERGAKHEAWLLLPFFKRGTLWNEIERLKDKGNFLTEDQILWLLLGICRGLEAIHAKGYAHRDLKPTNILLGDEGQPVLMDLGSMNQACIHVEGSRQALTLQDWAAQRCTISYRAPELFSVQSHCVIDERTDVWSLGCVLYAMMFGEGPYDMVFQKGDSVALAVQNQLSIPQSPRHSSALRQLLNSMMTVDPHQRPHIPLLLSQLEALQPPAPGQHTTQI

`Oc1ccc(C2=Cc3ccc(O)cc3OC2)cc1` [compound 1, idronoxil] was tested, and the remaining binding at 10 µM (STK16) was 100%, the remaining binding at 10 µM (TYRO3) was 66% and the remaining binding at 10 µM (CDK16) was 93%. For the same compound, the remaining binding at 10 µM [1] was 8.3%, the remaining binding at 10 µM (PRKCD) was 96% and the remaining binding at 10 µM (PIK3CB) was 98%. For the same compound, the remaining binding at 10 µM (MAST1) was 93%, the remaining binding at 10 µM (PTK2) was 100% and the remaining binding at 10 µM (CDK9) was 91%. For the same compound, the remaining binding at 10 µM (CSK) was 100%, the remaining binding at 10 µM (FLT3) was 80% and the remaining binding at 10 µM (ULK3) was 78%. The remaining binding at 10 µM (ERBB4) was 91%, the remaining binding at 10 µM (TLK1) was 71% and the remaining binding at 10 µM (FYN) was 89%. For the same compound, the remaining binding at 10 µM (PHKG1) was 57%, the remaining binding at 10 µM (PDGFRA) was 29% and the remaining binding at 10 µM (STK4) was 97%. For the same compound, the remaining binding at 10 µM (SYK) was 62% and the remaining binding at 10 µM (NTRK1) was 91%.
